Measured values as given in BindingDB's records for patent US20240018157 (Schrödinger, 2024).

What follows are molecules tested against T1, Mucosa-associated lymphoid tissue lymphoma translocation protein 1 (Homo sapiens, UniProt Q9UDY8) (assay: MALT1 Protease Assay 2).
T1 sequence (Q9UDY8 whole entry): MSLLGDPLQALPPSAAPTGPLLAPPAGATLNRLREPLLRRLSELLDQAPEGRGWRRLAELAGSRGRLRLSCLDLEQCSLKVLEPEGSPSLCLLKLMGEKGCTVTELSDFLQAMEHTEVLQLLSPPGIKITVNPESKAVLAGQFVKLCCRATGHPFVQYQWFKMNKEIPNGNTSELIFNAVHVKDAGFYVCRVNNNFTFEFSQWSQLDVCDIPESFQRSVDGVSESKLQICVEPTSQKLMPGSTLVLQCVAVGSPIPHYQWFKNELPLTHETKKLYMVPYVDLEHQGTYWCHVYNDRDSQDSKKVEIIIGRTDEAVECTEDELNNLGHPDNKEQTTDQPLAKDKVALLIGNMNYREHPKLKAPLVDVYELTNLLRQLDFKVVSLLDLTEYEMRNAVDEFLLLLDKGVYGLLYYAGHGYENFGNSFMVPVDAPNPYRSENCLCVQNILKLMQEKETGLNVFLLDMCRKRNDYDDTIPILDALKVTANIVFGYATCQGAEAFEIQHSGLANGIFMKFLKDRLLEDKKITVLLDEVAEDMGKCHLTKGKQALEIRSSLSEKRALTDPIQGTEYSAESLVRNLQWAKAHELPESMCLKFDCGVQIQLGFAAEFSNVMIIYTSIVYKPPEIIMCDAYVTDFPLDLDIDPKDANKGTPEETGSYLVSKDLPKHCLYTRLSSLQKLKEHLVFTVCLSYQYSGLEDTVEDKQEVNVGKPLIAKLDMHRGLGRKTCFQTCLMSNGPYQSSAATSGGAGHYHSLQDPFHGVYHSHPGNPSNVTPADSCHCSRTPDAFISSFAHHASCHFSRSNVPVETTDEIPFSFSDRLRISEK
Experimental: Test compounds were dissolved in 100% DMSO at stock of 10 mM, with final DMSO concentration 0.1%. Test compounds were pre-incubated with MALT1 protein for 2 h at room temperature.

Row | SMILES | IC50
1 | Cc1nn2c3c(cnc2c1N)N(C(=O)Nc1cnc(-n2nccn2)c(Cl)c1)C[C@]3(C)C(F)(F)F [US20240018157, Example 159] | 0.01 to 0.1 µM
2 | Cc1nn2c3c(cnc2c1N)N(C(=O)Nc1cnc(-n2nccn2)c(Cl)c1)C[C@@]3(C)C(F)(F)F [US20240018157, Example 160] | > 1 µM
3 | Cc1nnc(C(F)F)cc1NC(=O)N1C[C@@](C)(C(F)(F)F)c2c1cnc1cc(F)nn21 [US20240018157, Example 161] | 0.1 to 1 µM
4 | CN1CC(n2nc(NC(=O)N3C[C@@](C)(C(F)(F)F)c4c3cnc3cc(Cl)nn43)cc2Cl)C1 [US20240018157, Example 163] | > 1 µM
5 | C[C@@]1(C(F)(F)F)CN(C(=O)N[C@@H]2CCC(F)(F)C2)c2cnc3cc(Cl)nn3c21 [US20240018157, Example 165] | > 1 µM
6 | C[C@@]1(C(F)(F)F)CN(C(=O)N[C@H]2CCC(F)(F)C2)c2cnc3cc(Cl)nn3c21 [US20240018157, Example 166] | > 1 µM
7 | CN1CCOC(c2ncc(NC(=O)N3C[C@@](C)(C(F)(F)F)c4c3cnc3cc(Cl)nn43)cc2Cl)C1 (stereo not given in full) [US20240018157, Example 167] | > 1 µM
8 | C[C@@]1(C(F)(F)F)CN(C(=O)Nc2cnc(C3(O)CCC3)c(Cl)c2)c2cnc3cc(Cl)nn3c21 [US20240018157, Example 168] | > 1 µM
9 | CN1CC(Nc2cc(NC(=O)N3C[C@@](C)(C(F)(F)F)c4c3cnc3cc(Cl)nn43)cc(C(F)(F)F)n2)C1 [US20240018157, Example 169] | > 1 µM
10 | CC1(C)CC(NC(=O)N2C[C@@](C)(C(F)(F)F)c3c2cnc2cc(Cl)nn32)CCO1 (stereo not given in full) [US20240018157, Example 170] | > 1 µM
11 | C[C@@]1(C(F)(F)F)CN(C(=O)N[C@@H]2CCCC[C@H]2O)c2cnc3cc(Cl)nn3c21 [US20240018157, Example 171] | > 1 µM
12 | CC1CC(NC(=O)N2C[C@@](C)(C(F)(F)F)c3c2cnc2cc(Cl)nn32)CCO1 (stereo not given in full) [US20240018157, Example 173] | > 1 µM
13 | C[C@@]1(C(F)(F)F)CN(C(=O)NC2CCC3(CCCO3)CC2)c2cnc3cc(Cl)nn3c21 (stereo not given in full) [US20240018157, Example 174] | > 1 µM
14 | C[C@@]1(C(F)(F)F)CN(C(=O)n2nc(C(F)(F)F)cc2N)c2cnc3cc(Cl)nn3c21 [US20240018157, Example 175] | > 1 µM
15 | Cc1cc(NC(=O)N2C[C@@](C)(C(F)(F)F)c3c2cnc2cc(Cl)nn32)nc2c1cnn2C [US20240018157, Example 176] | > 1 µM
16 | C[C@@]1(C(F)(F)F)CN(C(=O)n2nc(C(F)F)cc2N)c2cnc3cc(Cl)nn3c21 [US20240018157, Example 177] | > 1 µM
17 | CN1CC(Oc2cc(C(F)F)cc(NC(=O)N3C[C@@](C)(C(F)(F)F)c4c3cnc3cc(Cl)nn43)n2)C1 [US20240018157, Example 178] | > 1 µM
18 | C[C@@]1(C(F)(F)F)CN(C(=O)Nc2cc(C(F)F)ns2)c2cnc3cc(Cl)nn3c21 [US20240018157, Example 179] | > 1 µM
19 | C[C@@]1(C(F)(F)F)CN(C(=O)Nc2cnc(-n3nccn3)c(C(F)(F)F)c2)c2cnc3cc(F)nn3c21 [US20240018157, Example 181] | < 0.01 µM
20 | C[C@]1(C(F)(F)F)CN(C(=O)Nc2cnc(-n3nccn3)c(C(F)(F)F)c2)c2cnc3cc(F)nn3c21 [US20240018157, Example 182] | > 1 µM
21 | C[C@H](O)c1cnnn1-c1ncc(NC(=O)N2C[C@@](C)(C(F)(F)F)c3c2cnc2cc(Cl)nn32)cc1C(F)F [US20240018157, Example 184] | 0.01 to 0.1 µM
22 | C[C@@]1(C(F)(F)F)CN(C(=O)Nc2cc(Cl)c(C(=O)O)c(O[C@H]3CCNC3)n2)c2cnc3cc(Cl)nn3c21 [US20240018157, Example 185] | > 1 µM

Row | SMILES | IC50
23 | CNc1cc(NC(=O)N2C[C@@](C)(C(F)(F)F)c3c2cnc2cc(Cl)nn32)ncc1-n1nccn1 [US20240018157, Example 186] | > 1 µM
24 | CNc1cc(NC(=O)N2C[C@@](C)(C(F)(F)F)c3c2cnc2cc(Cl)nn32)cnc1-n1ccnn1 [US20240018157, Example 187] | > 1 µM
25 | C[C@]1(C(F)(F)F)CN(C(=O)Nc2cnnc(C(F)F)c2)c2cnc3cc(C#N)nn3c21 [US20240018157, Example 189] | 0.1 to 1 µM
26 | C[C@@]1(C(F)(F)F)CN(C(=O)Nc2cnnc(C(F)F)c2)c2cnc3cc(C#N)nn3c21 [US20240018157, Example 190] | > 1 µM
27 | CC(O)c1cnn(-c2ncc(NC(=O)N3C[C@@](C)(C(F)(F)F)c4c3cnc3cc(F)nn43)cc2C(F)F)n1 (stereo not given in full) [US20240018157, Example 191] | < 0.01 µM
28 | CNc1nc(NC(=O)N2C[C@@](C)(C(F)(F)F)c3c2cnc2cc(Cl)nn32)ccc1-n1nccn1 [US20240018157, Example 192] | > 1 µM
29 | CCc1cc2ncc3c(n2n1)[C@@](C)(C(F)(F)F)CN3C(=O)Nc1cnnc(C(F)F)c1 [US20240018157, Example 194] | > 1 µM
30 | CCc1cc2ncc3c(n2n1)[C@](C)(C(F)(F)F)CN3C(=O)Nc1cnnc(C(F)F)c1 [US20240018157, Example 195] | 0.01 to 0.1 µM
31 | C[C@]1(C(F)(F)F)CN(C(=O)Nc2cnnc(C(F)F)c2)c2cnc3cc(CC(F)(F)F)nn3c21 [US20240018157, Example 196] | > 1 µM
32 | C[C@@]1(C(F)(F)F)CN(C(=O)Nc2cnnc(C(F)F)c2)c2cnc3cc(CC(F)(F)F)nn3c21 [US20240018157, Example 197] | > 1 µM
33 | C[C@]1(C(F)(F)F)CN(C(=O)Nc2cnnc(C(F)F)c2)c2cnc3cc(OC(F)F)nn3c21 [US20240018157, Example 199] | > 1 µM
34 | C[C@@]1(C(F)(F)F)CN(C(=O)Nc2cnnc(C(F)F)c2)c2cnc3cc(OC(F)F)nn3c21 [US20240018157, Example 200] | > 1 µM
35 | O=C(Nc1cnc(-n2nccn2)c(Cl)c1)N1CC(O)(C(F)(F)F)c2c1cnc1cc(Cl)nn21 (stereo not given) [US20240018157, Example 201] | < 0.01 µM
36 | C[C@]1(C(F)F)CN(C(=O)Nc2cnc(OC(F)F)c(Cl)c2)c2cnc3cc(Cl)nn3c21 [US20240018157, Example 204] | 0.01 to 0.1 µM
37 | C[C@@]1(C(F)F)CN(C(=O)Nc2cnc(OC(F)F)c(Cl)c2)c2cnc3cc(Cl)nn3c21 [US20240018157, Example 205] | < 0.01 µM
38 | Cc1cn2ncc3c(c2n1)C(C)(C)CN3C(=O)Nc1cnc(C(=O)N(C)C)c(Cl)c1 [US20240018157, Example 206] | > 1 µM
39 | COC1CN(C(=O)c2ncc(NC(=O)N3CC(C)(C)c4c3cnn3cc(C)nc43)cc2Cl)C1 [US20240018157, Example 207] | > 1 µM
40 | Cc1cn2ncc3c(c2n1)C(C)(C)CN3C(=O)Nc1cnc(C(=O)N2CC(O)C2)c(Cl)c1 [US20240018157, Example 208] | > 1 µM
41 | C[C@@]1(C(F)(F)F)CN(C(=O)Nc2cnc(C3COC3)c(Cl)c2)c2cnc3cc(Cl)nn3c21 [US20240018157, Example 209] | > 1 µM
42 | Cn1cc([C@]2(C(F)(F)F)CN(C(=O)Nc3cnnc(C(F)F)c3)c3cnc4cc(Cl)nn4c32)cn1 [US20240018157, Example 210] | > 1 µM
43 | Cn1cc([C@@]2(C(F)(F)F)CN(C(=O)Nc3cnnc(C(F)F)c3)c3cnc4cc(Cl)nn4c32)cn1 [US20240018157, Example 211] | 0.01 to 0.1 µM

What follows are molecules tested against T1, Mucosa-associated lymphoid tissue lymphoma translocation protein 1 (assay: MALT1 Protease Assay 1).
Experimental: The final assay buffer includes 2 nM of MALT1 full-length protein, 50 μM Ac-LRSR-AMC substrate, 50 mM Tris pH 7.5, 600 mM Sodium Citrate, 1 mM DTT, 1 mM EDTA, and 0.05% BSA in 384-well plate format using black microtiter square well plates (Optiplate 384-F, Perkin Elmer). Test compounds were dissolved in 100% DMSO at stock of 10 mM, with final DMSO concentration 0.1%. Test compounds were pre-incubated with MALT1 protein for 2 h at room temperature. Substrate was added after the pre-incubation and fluorescence signal was measured using Envision at excitation 355 nm and emission 460 nm after 8 hr incubation at RT. Increase in the assay signal was linear over this period and proportional with increase in the enzyme content.

Row | SMILES | IC50
44 | O=C(Nc1cnc(-n2nccn2)c(Cl)c1)N1CC(C(F)(F)F)c2c1cnc1cc(Cl)nn21 (stereo not given) [US20240018157, Example 2] | < 0.01 µM
45 | C[C@]1(C2CC2)CN(C(=O)Nc2cnc(-n3nccn3)c(Cl)c2)c2cnc3cc(Cl)nn3c21 [US20240018157, Example 3] | 0.01 to 0.1 µM
46 | C[C@@H]1CCN(C(=O)Nc2cnc(-n3nccn3)c(Cl)c2)c2cnc3cc(Cl)nn3c21 [US20240018157, Example 5] | < 0.01 µM
47 | C[C@H]1CCN(C(=O)Nc2cnc(-n3nccn3)c(Cl)c2)c2cnc3cc(Cl)nn3c21 [US20240018157, Example 6] | 0.01 to 0.1 µM
48 | CC1(C)CCN(C(=O)Nc2cnc(-n3nccn3)c(Cl)c2)c2cnc3cc(Cl)nn3c21 [US20240018157, Example 7] | < 0.01 µM
49 | Cc1cc2ncc3c(n2n1)C(C(F)(F)F)CCN3C(=O)Nc1cnc(-n2nccn2)c(Cl)c1 (stereo not given) [US20240018157, Example 10] | < 0.01 µM
50 | CC1(C)c2c(cnc3cc(Cl)nn23)N(C(=O)Nc2cnc(-n3nccn3)c(Cl)c2)C[C@@H]1O [US20240018157, Example 11] | 0.01 to 0.1 µM
